Assay results from patent US11434221B2, “Pyrazine-4-carbamate or -urea derivatives as herbicides” (Syngenta Participations AG, priority 2017, dated 2022).

Key:
Assay type in all cases: in vivo
Design in all cases: key: 5=total damage to plant; 0=no damage to plant
[1] = tested on: Alopecurus myosuroides (ALOMY); experiment: Post-emergence herbicidal activity, glasshouse pot test; conditions: Rate 1000 g/ha; sprayed after 8 days cultivation; evaluated after 13 days
Description: (§1) Seeds of a variety of test species were sown in standard soil in pots: Triticum aestivium (TRZAW), Avena fatua (AVEFA), Alopecurus myosuroides (ALOMY), Echinochloa crus-galli (ECHCG), Lolium perenne (LOLPE), and Setaria faberi (SETFA). After 8 days cultivation (post-emergence) under controlled conditions in a glasshouse (at 24/16° C., day/night; 14 hours light; 65% humidity), the plants were sprayed with an aqueous spray solution derived from the formulation of the technical active ingredient in acetone/water (50:50) solution containing 0.5% Tween 20 (polyoxyethelyene sorbitan monolaurate, CAS RN 9005-64-5). The test plants were then grown in a glasshouse under controlled conditions (at 24/16° C., day/night; 14 hours light; 65% humidity) and watered twice daily. After 13 days, the test was evaluated (5=total damage to plant; 0=no damage to plant).

Lolium perenne (LOLPE) [2] = experiment: as above; conditions: Rate 1000 g/ha; sprayed after 8 days cultivation; evaluated after 13 days
Description: as §1

Setaria faberi (SETFA) [3] = experiment: as above; conditions: Rate 1000 g/ha; sprayed after 8 days cultivation; evaluated after 13 days
Description: as §1

[4] = tested on: Triticum aestivium (TRZAW); experiment: as above; conditions: Rate 1000 g/ha; sprayed after 8 days cultivation; evaluated after 13 days
Description: as §1

Avena fatua (AVEFA) [5] = experiment: as above; conditions: Rate 1000 g/ha; sprayed after 8 days cultivation; evaluated after 13 days
Description: as §1

[6] = tested on: Echinochloa crus-galli (ECHCG); experiment: as above; conditions: Rate 1000 g/ha; sprayed after 8 days cultivation; evaluated after 13 days
Description: as §1

[7] = tested on: Alopecurus myosuroides (ALOMY); experiment: Pre-emergence herbicidal activity, glasshouse pot test; conditions: Rate 1000 g/ha; sprayed one day after sowing; evaluated after 13 days
Description: as §1, with “After” for “After 8 days”, “for one day (pre-emergence)” for “(post-emergence)”

Lolium perenne (LOLPE) [8] = experiment: as above; conditions: Rate 1000 g/ha; sprayed one day after sowing; evaluated after 13 days
Description: as §1, with “After” for “After 8 days”, “for one day (pre-emergence)” for “(post-emergence)”

Setaria faberi (SETFA) [9] = experiment: as above; conditions: Rate 1000 g/ha; sprayed one day after sowing; evaluated after 13 days
Description: as §1, with “After” for “After 8 days”, “for one day (pre-emergence)” for “(post-emergence)”

[10] = tested on: Triticum aestivium (TRZAW); experiment: as above; conditions: Rate 1000 g/ha; sprayed one day after sowing; evaluated after 13 days
Description: as §1, with “After” for “After 8 days”, “for one day (pre-emergence)” for “(post-emergence)”

Avena fatua (AVEFA) [11] = experiment: as above; conditions: Rate 1000 g/ha; sprayed one day after sowing; evaluated after 13 days
Description: as §1, with “After” for “After 8 days”, “for one day (pre-emergence)” for “(post-emergence)”

[12] = tested on: Echinochloa crus-galli (ECHCG); experiment: as above; conditions: Rate 1000 g/ha; sprayed one day after sowing; evaluated after 13 days
Description: as §1, with “After” for “After 8 days”, “for one day (pre-emergence)” for “(post-emergence)”

Row | Structure (SMILES) | Control of weed species after post-emergence application, ALOMY (damage score 0-5) [1] | Control of weed species after post-emergence application, LOLPE (damage score 0-5) (Lolium perenne (LOLPE) [2]) | Control of weed species after post-emergence application, SETFA (damage score 0-5) (Setaria faberi (SETFA) [3]) | Control of weed species after post-emergence application, TRAZW (damage score 0-5) [4] | Control of weed species after post-emergence application, AVEFA (damage score 0-5) (Avena fatua (AVEFA) [5]) | Control of weed species after post-emergence application, ECHCG (damage score 0-5) [6] | Control of weed species after pre-emergence application, ALOMY (damage score 0-5) [7] | Control of weed species after pre-emergence application, LOLPE (damage score 0-5) (Lolium perenne (LOLPE) [8]) | Control of weed species after pre-emergence application, SETFA (damage score 0-5) (Setaria faberi (SETFA) [9]) | Control of weed species after pre-emergence application, TRAZW (damage score 0-5) [10] | Control of weed species after pre-emergence application, AVEFA (damage score 0-5) (Avena fatua (AVEFA) [11]) | Control of weed species after pre-emergence application, ECHCG (damage score 0-5) [12]
1 | CC(C)(C)OC(=O)Nc1ncc(-c2cncc(F)c2)nc1C(F)F [Compound H28] | 0 | 3 | 5 | 0 | 4 | 5 | 3 | 0 | 4 | 0 | 2 | 2
2 | CCc1nc(-c2cncc(F)c2)cnc1N(C(=O)OC(C)(C)C)C(=O)OC(C)(C)C [Compound H21] | 1 | 4 | 5 | 1 | 4 | 4 | 0 | 5 | 5 | 0 | 2 | 1
3 | CC(C)(C)OC(=O)Nc1ncc(-c2cncc(F)c2)nc1C#N [Compound H10] | 0 | 1 | 5 | 0 | 1 | 2 | 0 | 0 | 4 | 0 | 0 | 2
4 | CC(C)c1nc(-c2cncc(F)c2)cnc1N(C(=O)OC(C)(C)C)C(=O)OC(C)(C)C [Compound H13] | 0 | 1 | 5 | 1 | 1 | 2 | 0 | 0 | 4 | 0 | 0 | 1
5 | CSc1nc(-c2cncc(F)c2)cnc1NC(=O)OC(C)(C)C [Compound H24] | 0 | 2 | 5 | 0 | 3 | 4 | 0 | 1 | 5 | 0 | 2 | 2
6 | COc1nc(-c2cncc(F)c2)cnc1N(C(=O)OC(C)(C)C)C(=O)OC(C)(C)C [Compound H6] | 0 | 1 | 4 | 1 | 2 | 3 | 0 | 0 | 4 | 1 | 1 | 3
7 | C=Cc1nc(-c2cncc(F)c2)cnc1N(C(=O)OC(C)(C)C)C(=O)OC(C)(C)C [Compound H20] | 0 | 3 | 5 | 1 | 2 | 4 | 0 | 1 | 4 | 1 | 2 | 2
8 | CC(C)(C)OC(=O)OCc1nc(-c2cncc(F)c2)cnc1N(C(=O)OC(C)(C)C)C(=O)OC(C)(C)C [Compound H18] | 0 | 1 | 3 | 0 | 1 | 4 | 0 | 1 | 4 | 0 | 0 | 3
9 | CC(C)(C)OC(=O)N(C(=O)OC(C)(C)C)c1ncc(-c2cncnc2)nc1C(F)(F)F [Compound H1] | 0 | 3 | 5 | 0 | 4 | 5 | 0 | 1 | 4 | 0 | 2 | 4
